Test results: patent US9518085B2, “Compounds and pharmaceutical combinations for the treatment of neurodegenerative and ischemic brain diseases” (CENTRO DE INGENIERÍA GENÉTICA Y BIOTECHNOLOGÍA, priority 2011, dated 2016)
No end group written: not given here.

Key:
[1] = tested on: culture of brain granulous cells; settings: 1-3 mg/mL, absence of potassium and serum for 24 h; cited from earlier work
[2] = tested on: swollen paw models in mice and rats; settings: oral route, 100-200 mg/kg; cited from earlier work
COX-2 = target: T1, COX-2 (Homo sapiens, UniProt P35354); settings: isolated enzyme; complete blood assay; cited from earlier work
T1 sequence (P35354 18-604): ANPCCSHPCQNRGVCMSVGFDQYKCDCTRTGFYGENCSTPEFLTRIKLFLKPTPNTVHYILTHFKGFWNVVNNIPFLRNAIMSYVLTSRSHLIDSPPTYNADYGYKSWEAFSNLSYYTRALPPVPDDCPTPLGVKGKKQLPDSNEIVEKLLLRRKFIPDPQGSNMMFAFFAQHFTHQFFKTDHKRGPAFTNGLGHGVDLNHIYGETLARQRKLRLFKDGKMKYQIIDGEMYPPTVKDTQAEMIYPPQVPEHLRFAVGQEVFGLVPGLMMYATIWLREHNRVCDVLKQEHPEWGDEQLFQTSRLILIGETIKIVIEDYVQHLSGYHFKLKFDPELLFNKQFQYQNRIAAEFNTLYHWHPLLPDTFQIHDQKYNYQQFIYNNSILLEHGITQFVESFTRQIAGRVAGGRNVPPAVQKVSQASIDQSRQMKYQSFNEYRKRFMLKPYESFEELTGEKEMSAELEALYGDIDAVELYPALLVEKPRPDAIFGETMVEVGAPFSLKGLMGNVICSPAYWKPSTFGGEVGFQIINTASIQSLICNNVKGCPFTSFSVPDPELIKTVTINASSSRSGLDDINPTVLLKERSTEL

[3] = tested on: model of brain damage in rats induced by kainic acid; settings: one 100 mg/kg dose; cited from earlier work
PC12 cell line = test: Neuroprotector effect against Sodium glutamate induced damage in PC12 cells (MTT cell viability); format: cell-based; settings: for cells protected from the damage: Sodium glutamate damage, PC12; for concentration needed to attain cell viability similar to C-Phyco: PC12, 24 h pretreatment, 4 h co-incubation with Sodium glutamate, MTT
Method: FIG. 2. In vitro study of the neuroprotector effect of C-Phycocyanin (C-Phyco) (A) and of PCB and PCB-aa (B) against the Sodium glutamate (50 mM) induced damage in the neuronal line PC12. The symbols indicate the presence (+), absence (−) or concentrations of the respective compounds in the culture medium. Different letters indicate statistically significant difference, according to ANOVA followed by the Newman-Keuls multiple comparison test, p<0.05. The values presented in the graphs are the means±standard error of the mean (MSE).
PC12 cells (1.5×10^4 cells/well) were pretreated with C-Phyco (25, 50 μM) or PCB (0.5; 1; 5 μM) or PCB-aa (0.25; 1; 2 μM), during 24 h, and then submitted to co-incubation with […] Sodium glutamate together with the corresponding product (different doses) for 4 h.

[4] = tested on: hippocampus (C2, CA3, CA4 regions) of Mongolian gerbils, I/R model; test: Morphometric evaluation, bilateral hippocampal cell count after transient CCA occlusion; format: in vivo; settings: 750 μg/Kg ip, GHRP-6 6.25 μg/kg ip, alone or combined; 30 min, 3, 6, 12 h after ischemic event
Method: FIG. 8. Morphometric evaluation of the therapeutic effect with PCB-aa (peptide 3), the GHRP-6 peptide, or its combination in Mongolian gerbils submitted to transient (10 min) occlusion of CCA. A: representative images (4× magnification) of the left hippocampus of animals that underwent fake surgery (sham), or treated with saline solution, or with PCB-aa (peptide 3) and GHRP-6 (6.25 μg/kg, intraperitoneal route), or with PCB-aa (peptide 3)/GHRP-6 (maintaining the corresponding doses and administration routes) for 30 min, 3, 6 and 12 h after the ischemic event. B: bilateral cell count performed in the C2, CA3 and CA4 regions of both hippocampi for each experimental group. Different letters indicate significant differences with respect to the I/R+saline group, *p<0.05. The values presented in the graphs are means±MSE
The morphometric evaluations of the therapeutic treatment with PCB-aa (peptide 3), the GHRP-6 peptide or its combinations were tested in Mongolian gerbils submitted to transient (10 min) CCAs occlusion. Accumulative doses of PCB-aa (peptide 3) (750 μg/Kg, by intraperitoneal route), GHRP-6 (6.25 μg/kg, intraperitoneal route), or with PCB-aa (peptide 3)/GHRP-6 (maintaining the corresponding dose and administration route) for 30 min, 3, 6 and 12 h after the ischemic event were evaluated. The bilateral cell count was performed in the C2, CA3 and CA4 regions for each experimental group and it was expressed in percentage with respect to the sham (negative or fake surgery) group.

[5] = tested on: brain I/R model in Mongolian gerbils; test: Brain infarct volume in the bilateral ischemia-reperfusion (I/R) model, transient CCA occlusion; format: in vivo; settings: 24 h after 10 min CCA occlusion, PCB 750 μg/Kg ip, PCB-aa 3.375 mg/kg, alone or combined
Method: The animals were treated with saline solution or with an accumulative dose of the PCB-aa peptides (3.375 mg/kg of each one), by intraperitoneal route for 30 min, 3, 6 and 12 h after the ischemic event.
The effectiveness percentage of each treatment was calculated according to the following formula: effectiveness %=(1−Vi/VI/R)×100. Vi: infarct volume of the ischemic group treated with the corresponding product; VI/R: volume of the infarct of the ischemic group treated with saline solution.
The percentage of effectiveness was calculated as described in Example 3.
The animals were treated with a saline solution (through the intraperitoneal route) or with an accumulative dose of PCB (750 μg/Kg, by the intraperitoneal route), PCB-aa (peptide 4) 3.375 mg/kg, EPO (500 U/Kg, through the intraperitoneal route), asyaloEPO (200 U/Kg, through the nasal route) or with PCB/EPO or PCB-aa (peptide 4)/EPO, PCB/asyaloEPO and PCB-aa ([…])/asyaloEPO (maintaining the dose and the corresponding administration route) for 30 min, 3, 6 and 12 h after the ischemic event.
The evaluation of the therapeutic effect of the combinations and their independent components was carried out. The percentage of effectiveness of each treatment was calculated as described in Example 3.

EAE model = test: EAE model, therapeutic schedule, clinical course (area under the curve); format: in vivo, C57BL6 mice; settings: PCB 750 μg/kg ip, PCB-aa 3.375 mg/kg ip daily 15 days, IFN-b 500 ng/Kg sc 6 doses, alone or combined
Method: The percentage of effectiveness of each treatment was calculated according to the following formula: % of effectiveness=(1−ACi/ACEAE)×100. ACi: area under the curve of the group treated with the corresponding product; ACEAE: area under the curve of the EAE group.
(§1) In the prophylactic schedule the treatment was performed 15 days before EAE induction and in the therapeutic schedule starting from the beginning of the clinical signs.

[6] = tested on: experimental autoinmune encephalomyelitis (EAE) model; test: EAE model, prophylactic schedule, clinical index; format: in vivo, C57BL6 mice; settings: PCB-aa 3.375 mg/Kg, PCB 750 μg/Kg, alone or combined
Method: as §1

[7] = EPO 500 U/Kg ip, asyaloEPO 200 U/Kg nasal
[8] = IFN-a/IFN-b 500 ng/Kg sc, 30 min, 3, 6, 12 h after ischemic event

For C-Phycocyanin, the neuron death [1] is listed as “prevents neuron death”, the edema [2] is listed as “able to reduce edemas” and the COX-2 inhibition (COX-2) is listed as “inhibits COX-2”. For the same substance, the “signs and alterations versus untreated control group” value [3] was “reduced the signs” and the “cells protected from the damage” value (PC12 cell line; 50 μM C-Phyco) was “around 75%”.
In the case of GHRP-6 [reference compound], the “effectiveness, bilateral hippocampal cell count” value [4] is reported as 36.1%.
In the case of Phycocyanobilin [PCB], the “effectiveness, reduction of brain infarct volume” value (from here on “effectiveness, reduction”) [5, 7] is reported as 43.1%, the “effectiveness, reduction” value [5, 8] is reported as 43.1% and the “effectiveness, reduction” value ([5]; IL-2 100 ng/Kg sc) is reported as 43.1%. The “effectiveness, bilateral hippocampal cell count” value [4] was 35.8%, the “% of effectiveness (area under the curve of clinical index)” value (EAE model) was 46.1% and the “cells protected from the damage” value (PC12 cell line; 5 μM PCB) was 100%. The “concentration needed to attain cell viability similar to C-Phyco” value (PC12 cell line) was “lower concentrations”, the “protective molar concentration, times lower than C-Phyco” value (PC12 cell line; PC12, Sodium glutamate damage) was 10 times and the “Clinical score (Mean ± SD)” value ([6]; Table 1, IFN-a 500 ng/Kg) was 1.37 ± 1.7. The “Days of the disease” value ([6]; Table 1, IFN-a 500 ng/Kg) was 8.5 ± 0.1 days, the “Incidence (%)” value ([6]; Table 1, IFN-a 500 ng/Kg) was 70% and the “Starting Day (Mean ± SD)” value ([6]; Table 1, IFN-a 500 ng/Kg) was 10.5 ± 0.5. For the same substance, the “Clinical score (Mean ± SD)” value ([6]; Table 2, IFN-b 500 ng/Kg) was 1.55 ± 0.3, the “Days of the disease” value ([6]; Table 2, IFN-b 500 ng/Kg) was 7.3 ± 0.4 days and the “Incidence (%)” value ([6]; Table 2, IFN-b 500 ng/Kg) was 60%. The “Starting day (Mean ± DS)” value ([6]; Table 2, IFN-b 500 ng/Kg) was 12.3 ± 0.1.
In the case of “^79MAABLR^84 (MAAC(phycocyanobilin)LR; listed as Spirulina platensis) [PCB-aa (peptide 1), chromogenic peptide of β-C-Phyco]”, the “effectiveness, reduction” value [5, 8] is reported as 49.2%, the “concentration needed to attain cell viability similar to C-Phyco” value (PC12 cell line) is reported as “even lower” and the “Clinical score (Mean ± SD)” value ([6]; Table 1, IFN-a 500 ng/Kg) is reported as 1.23 ± 1.1. For the same substance, the “Days of the disease” value ([6]; Table 1, IFN-a 500 ng/Kg) was 7.2 ± 0.3 days, the “Incidence (%)” value ([6]; Table 1, IFN-a 500 ng/Kg) was 75% and the “Starting Day (Mean ± SD)” value ([6]; Table 1, IFN-a 500 ng/Kg) was 9.5 ± 0.2. The “Clinical score (Mean ± SD)” value ([6]; Table 2, IFN-b 500 ng/Kg) was 1.23 ± 1.1, the “Days of the disease” value ([6]; Table 2, IFN-b 500 ng/Kg) was 7.2 ± 0.3 days and the “Incidence (%)” value ([6]; Table 2, IFN-b 500 ng/Kg) was 70%. For the same substance, the “Starting day (Mean ± DS)” value ([6]; Table 2, IFN-b 500 ng/Kg) was 9.5 ± 0.2.
For “^80AABLR^84 (AAC(phycocyanobilin)LR; listed as Spirulina platensis) [PCB-aa (peptide 3), chromogenic peptide of β-C-Phyco]”, the “effectiveness, bilateral hippocampal cell count” value [4] was 35.8%.
For “^82BLR^84 (Cys(phycocyanobilin)-Leu-Arg; listed as Spirulina platensis) [PCB-aa (peptide 4), chromogenic peptide of β-C-Phyco]”, the “effectiveness, reduction” value [5, 7] was 49.2%.
With “^84BAR^86 (Cys(phycocyanobilin)-Ala-Arg; listed as Spirulina platensis) [PCB-aa (peptide 2), chromogenic peptide of α-C-Phyco]” the “effectiveness, reduction” value ([5]; IL-2 100 ng/Kg sc) was 49.2%.
